Key:
PCSK9 [1] = assay: Basal_PCSK9 HepG2, primary SP and CRC (secreted PCSK9, ELISA); type: cell-based, human
Description: To study the effect of the compounds on PCSK9 secretion we used 1×10^6 HepG2 cells in 6-well culture plates, followed by incubation with media only, media+0.1% DMSO or Media+5 uM of 31/33/34/35 in 0.1% DMSO and collection of 50 ul of media at 8, 16, 24 and 40 hours or incubation with increasing concentration (0.2-50 μM) of 34 in 0.1% DMSO for 24 hours and collection of 50 ul of media. The collected media was analyzed for PCSK9 levels using commercially available ELISA kit (MBL-international, catalog # CY-8079) following the manufacturer instruction.
The below data (Table 2) was generated using the assays as discussed in Examples 1-2. Blanks mean no testing was performed. […] For the SP assays, the higher the number, the higher the inhibition, e.g., the better the activity of the compound. Compounds with a determined IC50 are particularly active, the IC50 values were determined via dose response curve (under the heading CRC which stands for concentration response curve aka dose response curve).

HepG2 cells = assay: Cell survival, MTT assay; type: cell-based, human
Description: To study the effect of the compound on cell viability we used 1.25×10^5 HepG2 cells in 96-well culture plates, followed by incubation with media only, media+0.1% DMSO or Media+5 uM of 31/33/34/35 in 0.1% DMSO or with increasing concentration (0.2-50 μM) of 34 in 0.1% DMSO for 40 hours followed by a viability assay knows as MTT. The MTT assay is a colorimetric assay for assessing cell metabolic activity. NAD(P)H-dependent cellular oxidoreductase enzymes may, reflects the number of viable cells present. These enzymes are capable of reducing the tetrazolium dye MTT 3-(4,5-dimethylthiazol-2-yl)-2,5-diphenyltetrazolium bromide to its insoluble formazan, which has a purple color. Tetrazolium dye assays (commonalty known as the MTT assay) is used to measure cytotoxicity (loss of viable cells).

albumin = assay: Intracellular albumin, HepG2 (ELISA); type: cell-based, human
Description: After 24 hours media was aspirated, cells were washed with HBSS followed by protein extraction using commercially available RIPA buffer (SIGMA-ALDRICH, catalog #20-188). Protein extracts (5 μgr) were used for albumin detection using commercially available ELISA kit (ABCAM, catalog #108788) following the manufacturer instruction.

apoE [2] = assay: apoE secretion, HepG2 (ELISA); type: cell-based, human; settings: HepG2, FIG. 7A
Description: The collected media was analyzed for apoE levels using commercially available ELISA kit (ABCAM, catalog #108813) following the manufacturer instruction.

apoE [3] = assay: Intracellular apoE, HepG2 (western blot); type: cell-based, human; settings: 40 hours of incubation, HepG2, FIG. 7C
Excerpt: […] […] Protein extracts (25 μgr) were used for immunodetection of intracellular […] (western blot analysis) with a commercially available primary antibody against apoE (ABCAM, catalog #1906), HRP-conjugated secondary antibody (SIGMA-ALDRIC, catalog # A5420) visualized using an enhanced chemiluminescence (ECL) solution (Cumaric acid, Luminol and hydrogen peroxide), developed in a LiCore imager.

apoE mRNA = assay: apoE transcription, HepG2 (real-time PCR); type: cell-based, human; settings: HepG2, FIG. 7B
Excerpt: , cells were washed with HBSS followed by RNA extraction kit (RNeasy, QIAGEN cat #74-104). mRNA was reversed transcribed to cDNA using commercially available kit (ThermoFisher, cat #4368814) and analyzed using real-time PCR for apoE transcript levels using the relative expression method known as delta-delta CT.

[4] = system: 4000 most abundant proteins in HepG2 cells; assay: Shotgun proteomics of HepG2 cells; type: cell-based, human; settings: 5 μM, FIGS. 8A-8B
Description: To study whether 34 affect total protein levels in hepG2 in an unbiased analysis we used 1×10^6 HepG2 cells in 6-well culture plates, followed by incubation with media+0.1% DMSO or DMSO or with increasing concentration (2.5-10 μM) of 34 in 0.1% DMSO for 24 hours. After 24 hours media was aspirated, cells were washed with HBSS followed by shotgun proteomics analysis of the most abundant ˜4000 cellular proteins. Spectral count for each protein was compared between untreated (0.1% DMSO) to treated (34 at 5 μM) samples.

PCSK9 [5] = assay: Plasma PCSK9 levels in mice (ELISA); type: in vivo
Description: 1) Single-dose experiments: mice were administered (oral gavage or intra-peritoneal injection) with 200 μl of 34 (30 mg/kg or 100 mg/kg) in 0.1% Tween 80+1% hydroxyethyl cellulose (HEC) in buffered (PBS pH7.4) solution. After 34 administration, 50-70 μl of blood was collected from the retro-orbital plexus every 4-6 hours (for a total of 24 hours). Blood was left to clot at room temperature for 20 min, followed by serum separation (spin at 1000 g for 10 min). Serum was analyzed as specified in the “Serum analyses” section.
2) Daily dosage experiments: mice were administered daily oral gavage with 200 μl of 34 (100 mg/kg) in 0.1% Tween80+1% hydroxyethyl cellulose (HEC) in buffered (PBS pH7.4) solution. 50-70 μl of blood was collected from the retro-orbital plexus on day 3 and day 5 after 34 administration, on day 5 mice were euthanized and liver were collected and analyzed as mentioned below under the “Liver analyses” section. Blood was left to clot at room temperature for 20 min, followed by serum separation (spin at 1000 g for 10 min). Serum was analyzed as described below:
PCSK9 levels—using commercially available ELISA kit (MBL-international, catalog # CY-8079) following the manufacturer instruction.

CC(=O)Oc1ccc(C2CC3(CCCCC3)c3c2[nH]c2ccccc32)cc1 (stereo not shown) [Compound 34]
Primary SP Basal_PCSK9 HepG2 SP % Inhib @ 5 μM (PCSK9 [1]; 5 μM, HepG2, single point): 5.2%
accumulation of PCSK9 in culture media (PCSK9 [1]; 5 μM, HepG2 cells, FIGS. 2A-2B): significantly reduced accumulation of PCSK9 in culture media in a time-dependent and concentration-dependent manner
Primary SP Basal_PCSK9 HepG2 SP % Inhib @ 50 μM (PCSK9 [1]; 50 μM, HepG2, single point): 100.1%
IC50 (PCSK9 [1]; HepG2, concentration response curve): 3.5 µM
activity rating in words (PCSK9 inhibition, Table 2) (PCSK9 [1]; summary of Table 2 data): particularly strongly active
cell death (HepG2 cells; 20 μM and 50 μM, HepG2, FIG. 4B): increased cell death
HepG2 cell survival (MTT) (HepG2 cells; concentrations up to 5 μM, FIGS. 4A-4B): does not affect HepG2 cell survival at concentrations up to 5 μM
intracellular albumin (albumin; 20 μM and 50 μM, HepG2, result of increased cell death): Reduction in secreted and intracellular albumin
intracellular albumin (albumin; up to 10 μM, 40 hours of incubation, HepG2, FIG. 6B): no changes in secreted or intracellular albumin
secreted apoE levels (apoE [2]): no changes in secreted, intracellular, or mRNA levels of apoE
intracellular apoE levels (apoE [3]): no changes in secreted, intracellular, or mRNA levels of apoE
apoE mRNA levels (apoE mRNA): no changes in secreted, intracellular, or mRNA levels of apoE
levels of the 4000 most abundant proteins [4]: does not affect the levels of the 4000 most abundant proteins in HepG2 cells
individual mice with a drop in PCSK9 levels (PCSK9 [5]; 5-day oral 100 mg/kg/day, FIG. 12B): all mice receiving compound 34 presented with a drop in PCSK9 levels
drop in plasma PCSK9 (PCSK9 [5]; 5-day oral 100 mg/kg/day, day 5, FIG. 12A): 36.2%
maximal drop in plasma PCSK9 (PCSK9 [5]; single 30 mg/kg intraperitoneal (IP) injection, 4 hours after administration, FIG. 9): 43.2%
maximal drop in plasma PCSK9 (PCSK9 [5]; single 30 mg/kg oral gavage, 4 hours after administration, FIG. 9): 22.5%
time after administration at which PCSK9 levels are back to baseline (PCSK9 [5]; single 30 mg/kg, IP or oral, FIG. 9): 20 h
maximal drop in plasma PCSK9 (PCSK9 [5]; single oral 30 mg/kg, 6 hours after administration, FIG. 10A): 28.5%
time after administration at which PCSK9 levels are back to baseline (PCSK9 [5]; single oral 30 mg/kg, FIG. 10A): 18 h
maximal drop in plasma PCSK9 (PCSK9 [5]; single oral 100 mg/kg, 6 hours after administration, FIG. 10B): 33.4%
time after administration at which PCSK9 levels are back to baseline (PCSK9 [5]; single oral 100 mg/kg, FIG. 10B): 24 h
